Laboratory results published in patent US20140193846A1, “NOVEL APOC-I ISOFORMS AND THEIR USE AS BIOMARKERS AND RISK FACTORS OF ATHEROSCLEROTIC DISEASE” (SCOTT & WHITE HEALTHCARE, priority 2011, published 2014).
“Also recorded” adds a separate entry of the source.

Assays:
[1] = tested on: ASMC apoptosis mediated by HDL2 from subject 10; test: Effect of N-SMase inhibitor on HDL2-induced ASMC apoptosis; format: cell-based, human; details: GW 4869 20 umol/L; for effect of inhibitor on HDL2-induced ASMC apoptosis (words): HDL2 from subject 10
Procedure: The same procedure described in detail by Kolmakova et al., Arterioscler. Thromb. Vasc. Biol., 24:264-269 (2004) was used. In brief, 10^3 human ASMC (Cambrex, Walkersville, Md.), were grown on sterilized glass cover slips in 6-well trays and treated with 2.5 μL of the various lipoprotein fractions per ml of medium. After 24 hour incubation, the medium was removed and cells were fixed and stained. The average ApoA-I concentration in the HDL2 and HDL3 fractions was ˜25 mg/dL and ˜40 mg/dL, respectively.
The effect of GW 4869 (20 umol/L), a noncompetitive inhibitor of N-SMase (Luberto C. et al., J. Biol Chem., 277(43):41128-41139 (2002)), on ASMC apoptosis mediated by HDL2 from subject 10 was studied and the results are shown in FIG. 9. […] The effect of HDL2 on apoptosis was also dose-dependent: when only 1 μl of HDL2 was used a 20.1% apoptosis of ASMC resulted as compared to ˜50% apoptosis when 2.5 μl HDL2 from the same subject was used.

[2] = tested on: ICAM-1 expression by HAECs; test: ICAM-1 expression by HAECs exposed to lipoprotein fractions; format: cell-based, human; details: HAECs pre-treated with inhibitor
[3] = tested on: Human aortic endothelial cells (HAECs); test: Nitric oxide (NO) release from HAECs incubated with HDL sub-fractions (DAF fluorescence); format: cell-based; details: HAECs pretreated, then incubated with apoptotic HDL2
Procedure: Human aortic endothelial cells (HAECs) were incubated with HDL sub-fractions for 12 h from a subject with apoptotic HDL2 (and CAD) and a subject with non-apoptotic HDL2 (without CAD). The cells were then stained with 4′5′-diamino flourescein 2-diacetate (DAF) (Invitrogen/Molecular Probes, CA), a fluorescent probe that allows for real-time detection of NO. Following incubation cells were washed with phosphate buffered saline (PBS) to remove unbound dye and mounted on a drop of 10% glycerol in PBS and photographed by fluorescence microscopy.

[4] = molecular target: T1, lecithin-cholesterol acyl transferase (LCAT) (Homo sapiens, UniProt P04180); details: % of the activity demonstrated by apoA-I; cited from earlier work
T1 sequence (P04180 25-440): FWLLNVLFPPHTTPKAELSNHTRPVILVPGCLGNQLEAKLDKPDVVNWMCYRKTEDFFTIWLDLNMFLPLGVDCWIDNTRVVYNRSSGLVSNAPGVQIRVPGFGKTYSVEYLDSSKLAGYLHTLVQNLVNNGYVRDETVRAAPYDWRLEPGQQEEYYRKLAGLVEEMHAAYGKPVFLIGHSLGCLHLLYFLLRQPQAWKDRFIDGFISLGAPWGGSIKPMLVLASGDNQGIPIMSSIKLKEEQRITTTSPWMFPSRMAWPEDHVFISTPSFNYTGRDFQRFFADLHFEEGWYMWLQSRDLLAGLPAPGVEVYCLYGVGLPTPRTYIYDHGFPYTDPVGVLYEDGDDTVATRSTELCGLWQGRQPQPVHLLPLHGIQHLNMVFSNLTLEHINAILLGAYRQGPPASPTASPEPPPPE

## O=C(/C=C/c1ccc(/C=C/C(=O)Nc2ccc(C3=NCCN3)cc2)cc1)Nc1ccc(C2=NCCN2)cc1 [GW4869]
[1]; 1 μL HDL2 from subject 10, 20.1% without inhibitor
  number of apoptotic cells with HDL2 plus inhibitor: 1.19%
[1]
  effect of inhibitor on HDL2-induced ASMC apoptosis (words): inhibits apoptosis
[1]; listed as GW 4869
  effect of inhibitor on HDL2-induced ASMC apoptosis (words): almost completely prevented HDL2-induced apoptosis

## CNC(=N)NCCC[C@H](N)C(=O)O [NMLA, NG monomethyl-L-arginine]
[2]
  effect of pre-treating HAECs on HDL2-increased ICAM-1 expression: attenuated

## S=C(S)N1CCCC1 [PDTC, Pyrrolidine dithiocarbamate]
[3]
  effect of pretreatment on HDL2-induced NO release from HAECs: markedly reduced NO release; also recorded: production of NO was blocked
[2]
  effect of pre-treating HAECs on HDL2-increased ICAM-1 expression: attenuated

## ApoC-I: mature 57 amino acid apolipoprotein C-I protein set forth in SEQ ID NO:6 (TPDVSSALDKLKEFGNTLEDKARELIBRINKQSELSAKMREWFSETFQKVKELKIDS; listed as Homo sapiens)
[4]
  LCAT stimulation, activity relative to apoA-I: approximately 78%
